Here are results for 1 sequence from article PMC8234864, “Early Effects of the Soluble Amyloid β25-35 Peptide in Rat Cortical Neurons: Modulation of Signal Transduction Mediated by Adenosine and Group I Metabotropic Glutamate Receptors” (International Journal of Molecular Sciences, 2021).

As a reminder, the Kd is the constant that tells how readily two partners part at equilibrium.

The assay concerns Total mGluR. The assay is described as follows: L-[3H]glutamate radioligand binding in intact cortical neurons. On the set-up: species or system rat. The following applies: for Total mGluR Bmax: L-[3H]Glutamate saturation binding. As to the method:
Metabotropic glutamate receptors were determined using the radioligand L-[^3H]glutamate, as described previously. Radioligand binding assays using intact cells were performed in 24-well plates. Briefly, cells were washed with serum-free DMEM buffered with 20 mM HEPES pH 7.4 and incubated for 60 min at 37 °C in a final volume of 250 µL, in the presence of 100 μM AMPA, 100 μM NMDA, and 100 μM kainate, to block glutamate binding to these receptor types; 10 μM of the glutamate uptake inhibitor D,L-threo-β-hydroxyaspartic acid; and increasing concentrations of L-[^3H] glutamate (200 nM to 1.2 µM). Non-labeled L-Glutamate in a concentration of 10^5 times higher than the radioligand was used to determine non-specific binding. After incubation, cells were washed with 500 µL of ice-cold buffer and disrupted with 0.2% SDS. Well contents were then transferred to vials and a scintillation liquid mixture was added to measure radioactivity. At least two wells from each plate were reserved for protein concentration measurement.

Where [1] appears, read: neurons exposed to 25 µM for 24 h.
[2] abbreviates: neurons exposed to 25 µM for 48 h.

Where no end group is shown, it is not given here.

As to GSNKGAIIGLM [Aβ25-35], the “mGluR affinity (1/KD), % of the control value” (25 µM, 24 or 48 h) is recorded as roughly 50%. For the same sequence, the “Total mGluR density (Bmax) increase over control value” (25 µM, 24 h) is 61% and the “Total mGluR density (Bmax) increase over control value” (25 µM, 48 h) amounted to 99%. Besides, the Kd by setting is: under setting [1], 1.61 ± 0.423 µM; under setting [2], 1.52 ± 0.163 µM. The “Total mGluR Bmax” value by setting is: under setting [1], 952 ± 9 pmol/mg prot; under setting [2], 1178 ± 93 pmol/mg prot.
